The values that follow come from PubChem BioAssay (NCI).

Some test systems named below: COLO 205 colon; SK-OV-3 ovarian; UACC-257 melanoma; RXF 393 renal; UO-31 renal; RPMI-8226 leukemia; SR leukemia; HL-60(TB) leukemia; OVCAR-5 ovarian; LOX IMVI melanoma; SNB-19 CNS; SF-539 CNS; TK-10 renal; HCT-15 colon; MCF7 breast; MDA-MB-231 breast.
What all share (assay): NCI tumour cell line growth inhibition, 48 h

SMILES strings stand for the structures.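 Where inhibition never reached the appropriate level, the endpoint shown equals the highest concentration tested. Otherwise, values were interpolated linearly from a five-concentration, 48-hour dose response in 96-well plates. At the TGI there is no net growth.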

Regarding `CO[C@H](C(=O)O[C@H]1C(=O)N2CC[C@@H]3CCC[C@H]1C32C)c1ccccc1` (some centres not stated), the TGI in the experiment with COLO 205 colon, with SK-OV-3 ovarian, in the experiment on UACC-257 melanoma, in the experiment with RXF 393 renal, in the experiment on UO-31 renal and in the experiment with RPMI-8226 leukemia was more than 100 µM in each case. Besides, the TGI with SR leukemia, in the experiment on HL-60(TB) leukemia, in the experiment with OVCAR-5 ovarian, in the experiment on LOX IMVI melanoma, in the experiment with SNB-19 CNS and in the experiment with SF-539 CNS was more than 100 µM each time.
Turning to `O=C(CSc1nnc(Cc2ccccc2)o1)Nc1ccc(Cl)cc1[N+](=O)[O-]`, the TGI with COLO 205 colon was 46.4 µM; in the experiment on SK-OV-3 ovarian, more than 100 µM; with UACC-257 melanoma, 36.3 µM; with RXF 393 renal, 33.4 µM; in the experiment with UO-31 renal, 49.4 µM; in the experiment with TK-10 renal, 30.8 µM. For the same compound, the TGI in the experiment with HCT-15 colon is 32.2 µM; in the experiment with RPMI-8226 leukemia, 49.6 µM; in the experiment on SR leukemia it was more than 100 µM; in the experiment with HL-60(TB) leukemia, 61.5 µM; in the experiment with LOX IMVI melanoma, 26.3 µM; in the experiment with SNB-19 CNS, 31 µM.
Regarding `O=c1oc2ccc3ccccc3c2cc1-c1nc(-c2ccc([N+](=O)[O-])cc2)n[nH]1`, the TGI in the experiment with COLO 205 colon was more than 100 µM; with SK-OV-3 ovarian, 52.7 µM; in the experiment on UACC-257 melanoma it was more than 100 µM; with UO-31 renal, more than 100 µM; in the experiment on HCT-15 colon it was more than 100 µM; with RPMI-8226 leukemia it was more than 100 µM. Further, the TGI with SR leukemia, in the experiment on HL-60(TB) leukemia, in the experiment on OVCAR-5 ovarian, in the experiment with LOX IMVI melanoma, with SNB-19 CNS and with MCF7 breast was more than 100 µM throughout. The same compound registered a TGI in the experiment with SF-539 CNS of 39.4 µM.
Consider `Cc1ccc(NC(=O)CCc2nnc3s/c(=C\c4cccc([N+](=O)[O-])c4)c(=O)n23)cc1`, for which the TGI in the experiment on COLO 205 colon, with SK-OV-3 ovarian, with UACC-257 melanoma, in the experiment on RXF 393 renal, with UO-31 renal and in the experiment on TK-10 renal was more than 100 µM each time. In addition, the TGI with HCT-15 colon, in the experiment with RPMI-8226 leukemia, in the experiment with SR leukemia, in the experiment with OVCAR-5 ovarian, in the experiment with LOX IMVI melanoma and in the experiment on SNB-19 CNS was more than 100 µM each time. In the experiment with SF-539 CNS, this compound registered a TGI of more than 100 µM.
Turning to `O=C1C[C@@H]2[C@@H](CCC23CCCC3)N1`, the TGI with COLO 205 colon, with SK-OV-3 ovarian, with UACC-257 melanoma, with RXF 393 renal, in the experiment with UO-31 renal and in the experiment on TK-10 renal was more than 100 µM each time. Also, the TGI in the experiment on HCT-15 colon, in the experiment on RPMI-8226 leukemia, in the experiment on HL-60(TB) leukemia, in the experiment on OVCAR-5 ovarian, with LOX IMVI melanoma and in the experiment with SNB-19 CNS was more than 100 µM in each case. Further, in the experiment with SF-539 CNS, the TGI was more than 100 µM.
For `CC(=O)NNc1nc(C)c(C(/C=C/c2ccc(Cl)cc2)=N\N=C(N)N)s1`, the TGI in the experiment with COLO 205 colon, with SK-OV-3 ovarian, in the experiment with UACC-257 melanoma, in the experiment on RXF 393 renal, in the experiment on UO-31 renal and with TK-10 renal was more than 100 µM in each case. Moreover, the TGI in the experiment on HCT-15 colon, in the experiment on RPMI-8226 leukemia, with SR leukemia, in the experiment on HL-60(TB) leukemia, with OVCAR-5 ovarian and in the experiment on LOX IMVI melanoma was more than 100 µM throughout. For the same compound, the TGI in the experiment with SNB-19 CNS and in the experiment on SF-539 CNS was more than 100 µM each time.
In the case of `Cc1cc(N(CCC#N)CCC#N)ccc1/C=C1N=C(/C=C/c2ccccc2)N(c2ccc(S(N)(=O)=O)cc2)C\1=O`, the TGI in the experiment on COLO 205 colon, with SK-OV-3 ovarian, with UACC-257 melanoma, with UO-31 renal, in the experiment with TK-10 renal and with HCT-15 colon was more than 100 µM in each case. Besides, the TGI in the experiment on RPMI-8226 leukemia, with SR leukemia, with HL-60(TB) leukemia, with OVCAR-5 ovarian, in the experiment with LOX IMVI melanoma and with SNB-19 CNS was more than 100 µM throughout. Besides, the TGI with SF-539 CNS was more than 100 µM.
For the compound `CN1C(=S)CSc2ccccc21`, the TGI in the experiment on COLO 205 colon, with SK-OV-3 ovarian, in the experiment with UACC-257 melanoma, with RXF 393 renal, in the experiment on UO-31 renal and in the experiment with TK-10 renal was more than 100 µM in each case. Also, the TGI with HCT-15 colon, in the experiment with RPMI-8226 leukemia, with SR leukemia, with HL-60(TB) leukemia, in the experiment on OVCAR-5 ovarian and with LOX IMVI melanoma was more than 100 µM each time. In addition, the TGI with SNB-19 CNS and in the experiment with SF-539 CNS was more than 100 µM throughout.
With `CC1=NNC(=O)C1C1CC(c2c[nH]c3ccccc23)=NN(c2ccccc2)C1=O` (configuration not stated), the TGI in the experiment on COLO 205 colon, in the experiment with SK-OV-3 ovarian, with UACC-257 melanoma, in the experiment with RXF 393 renal, in the experiment with UO-31 renal and in the experiment with TK-10 renal was more than 100 µM each time. For the same compound, the TGI in the experiment with HCT-15 colon was more than 100 µM; with RPMI-8226 leukemia, more than 100 µM; with HL-60(TB) leukemia it was 92.4 µM; in the experiment with OVCAR-5 ovarian, more than 100 µM; in the experiment on LOX IMVI melanoma, more than 100 µM; in the experiment on SNB-19 CNS it was more than 100 µM. Also, the TGI in the experiment on MDA-MB-231 breast and in the experiment with SF-539 CNS was more than 100 µM each time.
Take `C/C(=N\Nc1nc2ccccc2o1)c1ncccn1`: the TGI with COLO 205 colon is 15.8 µM; in the experiment with SK-OV-3 ovarian, 10 µM; in the experiment with UACC-257 melanoma it was 15.6 µM; in the experiment with RXF 393 renal it was 5.59 µM; with UO-31 renal, 0.609 µM; with TK-10 renal, 18.2 µM. The TGI in the experiment with HCT-15 colon is 20.3 µM; in the experiment with RPMI-8226 leukemia, 0.0363 µM; in the experiment on SR leukemia it was 0.228 µM; in the experiment with OVCAR-5 ovarian, 19.6 µM; with LOX IMVI melanoma it was 0.199 µM; with SNB-19 CNS, more than 100 µM. Moreover, the TGI turned out to be 21.5 µM in the experiment on MDA-MB-231 breast and 1.03 µM in the experiment with SF-539 CNS.
